Measurements published in US6566389B1, “Therapeutic uses of melatonin” (Neurim Pharmaceuticals (1991) Ltd., priority 1999, dated 2003).
Marks after values point to notes of the source that are not given here.

Experiments:
[1] = test system: pinealectomized rats treated with haloperidol; settings: 4 mg, i.p., within one hour; cited from earlier work
[2] = test system: patients with tardive dyskinesia on long-term neuroleptic treatment; experiment: Randomized, double blind, crossover trial of melatonin on tardive dyskinesia severity, Abnormal Involuntary Movements Scale (AIMS); type: in vivo, human
Protocol: The effect of melatonin on tardive dyskinesis was determined on a trial population of 22 patients, of whom 6 were schizoaffective and 16 were paranoid schizophrenics. All patients, who had been receiving long-term neuroleptic treatment, were diagnosed according to DSM IV. They consisted of 11 men and 11 women, age 39±15 years, age range 17-61 years, of whom 19 completed the trial and are included in the results. In a randomized, double blind, crossover manner, subjects were given daily either 2×5 mg melatonin in a controlled-release formulation (Circadin™, Neurim Pharmaceuticals, Israel), two hours before bedtime, or a placebo of identical appearance, for a period of six weeks, with a four week placebo wash-out between two treatment periods. […] During the last week of each treatment period, TD severity was assessed using the Abnormal Involuntary Movements Scale (AIMS) and comparisons were made between placebo or melatonin treatments, and baseline.

Compound: COc1ccc2[nH]cc(CCNC(C)=O)c2c1 [melatonin]
- severity of movements after melatonin [1]: non-significant reduction of the severity of movements
- T-test (t21), AIMS sub-scale 5 ([2]; arms, hands, baseline/administration difference, placebo vs. melatonin): −1.78
- p of T-test, AIMS sub-scale 5 ([2]; arms, hands, placebo vs. melatonin): 0.09
- decrease, ie. improvement (AIMS), after administration ([2]; change from baseline after melatonin, placebo −1±1.3): −3±2.1
- T-test (t21), AIMS sub-scale 1 ([2]; facial and oral movements, baseline/administration difference, placebo vs. melatonin): −1
- p of T-test, AIMS sub-scale 1 ([2]; facial and oral movements, placebo vs. melatonin): 0.33
- p (MANOVA) of decrease after melatonin compared with placebo ([2]; highly significant): < 0.0001
- T-test (t21), AIMS sub-scale 9 ([2]; implication due to abnormal movements, baseline/administration difference, placebo vs. melatonin): −1.14
- p of T-test, AIMS sub-scale 9 ([2]; implication due to abnormal movements, placebo vs. melatonin): 0.27
- T-test (t21), AIMS sub-scale 3 ([2]; jaw, baseline/administration difference, placebo vs. melatonin): −1.14
- p of T-test, AIMS sub-scale 3 ([2]; jaw, placebo vs. melatonin): 0.27
- T-test (t21), AIMS sub-scale 6 ([2]; legs, knees, baseline/administration difference, placebo vs. melatonin): −2.81
- p of T-test, AIMS sub-scale 6 ([2]; legs, knees, placebo vs. melatonin, significant outcome): 0.01*
- T-test (t21), AIMS sub-scale 2 ([2]; lips and perioral area, baseline/administration difference, placebo vs. melatonin): −3.92
- p of T-test, AIMS sub-scale 2 ([2]; lips and perioral area, placebo vs. melatonin, significant outcome): <0.001*
- T-test (t21), AIMS sub-scale 7 ([2]; neck, shoulder, baseline/administration difference, placebo vs. melatonin): −2.49
- p of T-test, AIMS sub-scale 7 ([2]; neck, shoulder, placebo vs. melatonin, significant outcome): 0.02*
- T-test (t21), AIMS sub-scale 10 ([2]; patient's awareness, baseline/administration difference, placebo vs. melatonin): delta = 0
- T-test (t21), AIMS sub-scale 11 ([2]; problem with teeth, baseline/administration difference, placebo vs. melatonin): delta = 0
- T-test (t21), AIMS sub-scale 8 ([2]; severity of abnormal movements, baseline/administration difference, placebo vs. melatonin): −1.82
- p of T-test, AIMS sub-scale 8 ([2]; severity of abnormal movements, placebo vs. melatonin): 0.08
- T-test (t21), AIMS sub-scale 4 ([2]; tongue, baseline/administration difference, placebo vs. melatonin): −0.81
- p of T-test, AIMS sub-scale 4 ([2]; tongue, placebo vs. melatonin): 0.43
